Reference: PMC6054532, “Dynamics of human protein kinase Aurora A linked to drug selectivity” (eLife, 2018)
Values belong to the molecule of their own block, whether it stands above or below them.

What was measured:
Aurora A [1] = target: T1, Aurora A (Homo sapiens, UniProt O14965); assay: Global fit of binding and dissociation kinetics (KinTek Explorer) and constants calculated from microscopic rate constants; settings: for weakening of overall affinity by the DFG-in and -out equilibrium: DFG-out binders
T1 construct: made in house; host or cells: E. coli BL21(DE3)
T1 sequence (O14965 122-403): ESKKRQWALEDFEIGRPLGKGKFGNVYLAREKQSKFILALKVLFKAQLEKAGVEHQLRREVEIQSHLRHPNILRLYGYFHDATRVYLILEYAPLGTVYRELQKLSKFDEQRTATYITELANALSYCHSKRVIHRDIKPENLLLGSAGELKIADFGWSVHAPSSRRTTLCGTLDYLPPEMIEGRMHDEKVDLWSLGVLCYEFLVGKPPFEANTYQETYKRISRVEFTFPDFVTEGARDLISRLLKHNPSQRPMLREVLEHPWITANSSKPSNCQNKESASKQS
Protocol: (§1) The rapid kinetics were studied using a stopped-flow spectrophotometer (SX20 series from Applied Photophysics Ltd). The flow system was made anaerobic by rinsing with degassed buffer comprised of 50 mM HEPES, 50 mM NaCl, 20 mM MgCl2, 5 mM TCEP, 5% DMSO, pH 7.30 to minimize photobleaching. The stock solutions of Aurora A and all drugs were made anaerobic by degassing with ThermoVac (MicroCal) at the desired temperature. In general, a solution of 5 μM Aurora A was loaded in one syringe and quickly mixed with drug, prepared in the same buffer, in the other syringe (mixing ratio 1:10). […] For each drug concentration, at least five replicate measurements were made and these transients were averaged. Analysis was performed by fitting the individual trace to exponential equations using Pro-Data Viewer (Applied Photophysics Ltd) or with Kinesyst 3 software (TgK Scientific) and error bars denote the standard errors as obtained from the fit. KaleidaGraph version 4.5.3 (Synergy) was used for data analysis and plotting.

[2] = target: T2, dephosphorylated Aurora A (Homo sapiens, UniProt O14965); assay: Stopped-flow intrinsic tryptophan fluorescence drug binding kinetics
T2 construct: made in house; host or cells: E. coli BL21(DE3)
T2 sequence (O14965 122-403): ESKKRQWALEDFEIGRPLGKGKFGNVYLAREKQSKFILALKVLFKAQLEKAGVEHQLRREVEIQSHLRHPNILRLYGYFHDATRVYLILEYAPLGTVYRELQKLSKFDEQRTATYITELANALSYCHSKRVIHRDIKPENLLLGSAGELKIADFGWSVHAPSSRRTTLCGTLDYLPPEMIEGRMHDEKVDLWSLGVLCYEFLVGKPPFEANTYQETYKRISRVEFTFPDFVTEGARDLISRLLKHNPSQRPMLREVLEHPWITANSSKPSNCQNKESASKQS
Protocol: as §1
The approximate values of k1 and k−1 obtained from fitting to this equation are used as starting values for the global fit.

Aurora C = tested on: Aurora C; set-up: method as in Carpinelli et al., 2007; Fraedrich et al., 2012; settings: ref Carpinelli et al., 2007; Fraedrich et al., 2012; cited from earlier work
Aurora B = settings: ref Howard et al., 2009; cited from earlier work
[3] = target: T3, Biotinylated T288V Aurora A (Homo sapiens, UniProt O14965, T288V); assay: Creoptix WAVE waveguide interferometry (double jump, slow-off, macroscopic KD); type: binding; settings: 25°C; complex formed after 1 hour of incubation
T3 construct: made in house
T3 sequence (O14965 122-403 T288V): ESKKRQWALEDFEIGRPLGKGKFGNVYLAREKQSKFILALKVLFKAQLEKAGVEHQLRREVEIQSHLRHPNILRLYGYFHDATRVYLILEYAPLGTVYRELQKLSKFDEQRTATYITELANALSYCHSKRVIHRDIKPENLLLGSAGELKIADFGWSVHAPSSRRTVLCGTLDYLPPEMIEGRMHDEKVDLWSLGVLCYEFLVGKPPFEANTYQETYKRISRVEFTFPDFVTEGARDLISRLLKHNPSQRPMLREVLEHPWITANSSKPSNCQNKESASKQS
Protocol: All chemicals were purchased from GE Healthcare, unless otherwise stated. The protocols in the WAVE control software for conditioning of the chip, immobilization of proteins and performing kinetics experiments were followed. In short, the polycarboxylate chip (PCH) was activated by injection of a 1:1 mixture with final concentrations of 200 mM N-ethyl-N’-(3-dimethylaminopropyl)carbodiimide (EDC) and 50 mM N-hydroxysuccinimide (NHS), followed by streptavidin immobilization (50 μg/mL in 10 mM sodium acetate pH 5.0). Unreacted sites on the chip were blocked with 1 M ethanolamine pH 8.0. For all activation, immobilization and passivation steps 0.2x HBS-EP was used as running buffer with a flowrate of 10 μL/min and an injection duration of 420 s on both channels 1 and 2.
All experiments were run in 50 mM HEPES, 50 mM NaCl, 20 mM MgCl2, 5 mM TCEP, 0.03 mg/mL BSA, 0.005% Tween-20, pH 7.30 as running buffer.

Aurora A [4] = target: T1, Aurora A; assay: mant-ATP binding kinetics by stopped-flow FRET from Trp, with global fit; settings: 10°C
Protocol: Inhibitor binding followed by an induced-fit step:(3) Eout+ I⇌koffkonEout⋅I⇌k−3k3Eout∗⋅I K2K3KD=K2∗K3/(K3+1)
FRET using intrinsic tryptophan fluorescence is used to monitor mant-ATP (obtained from Jena Bioscience) binding kinetics to Aurora A at 10°C. In the binding experiment or kon , increasing concentration of mant-ATP were quickly mixed to 0.5 µM Aurora A (ratio 1:10, excitation at 295 nm, emission cut-off at 395 nm). In the experiment to measure the release of mant-ATP or koff , 10 µM/10 µM Aurora A/mant-ATP complex was diluted with buffer (ratio 1:10). A significant decrease in the fluorescence intensity of Aurora A (excitation at 295 nm, emission cut-off at 395 nm) can be seen due to the mant-ATP release.

[5] = target: the molecule itself; assay: crystal structure; co-crystallised: 240 μM deP Aurora A 122-403 + 1.0 mM AT9283 + 250 μM Mb; sitting drop, 18°C, 0.1 M Bis-Tris pH 5.5, 0.2 M magnesium chloride, 19% (w/v) PEG-3350

Molecule: O=C(Nc1c[nH]nc1-c1nc2ccc(CN3CCOCC3)cc2[nH]1)NC1CC1 [AT9283]
IC50 (Aurora B): 3 nM | slow dissociation, double exponential, fast phase (kobs1 slow-off) [3]: (1.1 ± 0.02) × 10^−2 s^−1 | slow dissociation, double exponential, slow phase (kobs2 slow-off) [3]: (0.1 ± 0.01) × 10^−2 s^−1

B1: dephosphorylated Aurora A (122-403) (domain or fragment, human, UniProt O14965 122-403, looked up)
chain: ESKKRQWALEDFEIGRPLGKGKFGNVYLAREKQSKFILALKVLFKAQLEKAGVEHQLRREVEIQSHLRHPNILRLYGYFHDATRVYLILEYAPLGTVYRELQKLSKFDEQRTATYITELANALSYCHSKRVIHRDIKPENLLLGSAGELKIADFGWSVHAPSSRRTTLCGTLDYLPPEMIEGRMHDEKVDLWSLGVLCYEFLVGKPPFEANTYQETYKRISRVEFTFPDFVTEGARDLISRLLKHNPSQRPMLREVLEHPWITANSSKPSNCQNKESASKQS
notes: human Ser/Thr kinase Aurora A, residues 122-403, dephosphorylated (confirmed by mass spectrometry); E. coli BL21(DE3) is named only for the isotope-labelled samples; also called deP Aurora A^122-403; AurA; source: expressed and purified as described before (Zorba et al., 2014)
binding result [5]: binds

Continued, in another order:

weakening of overall affinity by the DFG-in and -out equilibrium (Aurora A [1]): 1.6 fold | tighter binding resulting from the conformational change after drug binding (Aurora A [1]; induced-fit step): four orders of magnitude | k-2 (intercept of kobs,Binding plot) ([2]; 25°C): 4.6 ± 3 s⁻¹ | kobs of slow phase, plateau (induced-fit step, k3+k-3) ([2]; 25°C): approximately 16 ± 2 s^−1
Molecule: CO[C@@H](C(=O)N1Cc2n[nH]c(NC(=O)c3ccc(N4CCN(C)CC4)cc3)c2C1)c1ccccc1 [Danusertib]
IC50 (Aurora C): 61 nM

weakening of overall affinity by the DFG-in and -out equilibrium (Aurora A [1]): 1.6 fold | k2, bimolecular rate constant (slope of kobs,Binding vs concentration, fast phase) ([2]; 10°C): 1.1e+06 ± 300000 M⁻¹ s⁻¹ | k-2, dissociation from intercept of binding plot (kdiss) ([2]; 10°C): 31 ± 2 s⁻¹
Molecule: Cc1ccc(NC(=O)c2ccc(CN3CCN(C)CC3)cc2)cc1Nc1nccc(-c2cccnc2)n1 [Gleevec]

k2 (plot of kobs vs concentration, fast phase) (Aurora A [4]): 800000 ± 200000 M⁻¹ s⁻¹ | k-2 (plot of kobs vs concentration, fast phase) (Aurora A [4]): 50 ± 8 s⁻¹ | kobs of slow phase, plateau (k3+k-3) (Aurora A [4]): around 21 ± 1 s^−1
Molecule: mant-ATP
